Results on one compound are retold here after paper PMC5218480 (PLoS ONE, 2017).

Molecules are shown by their SMILES.

The assay has as its system MV-4-11 cells. The assay can be described thus: Gene expression microarray analysis (Affymetrix PrimeView) and GSEA. The format is cell-based, human. More on the design: RFU PODN (11730768_x_at) / Fold change /veh PODN (11730768_x_at) / RFU LINC00158 (11744669_a_at) / Fold change /veh LINC00158 (11744669_a_at) / RFU DUSP10 (11751237_a_at) / Fold change /veh DUSP10 (11751237_a_at) / RFU ID3 (11757404_x_at) / Fold change /veh ID3 (11757404_x_at) / RFU PLEKHG5 (11737974_s_at) / Fold change /veh PLEKHG5 (11737974_s_at) / RFU LRRC4B (11730491_at) / Fold change /veh LRRC4B (11730491_at) / RFU GIMAP4 (11747438_a_at) / Fold change /veh GIMAP4 (11747438_a_at) / RFU KRT8 (11758183_x_at) / Fold change /veh KRT8 (11758183_x_at) / RFU CNN1 (11734310_a_at) / Fold change /veh CNN1 (11734310_a_at) / RFU VPS37D (11726825_at) / Fold change /veh VPS37D (11726825_at) / RFU C10orf10 (11716522_x_at) / Fold change /veh C10orf10 (11716522_x_at) / RFU KIR2DL2 /// KIR2DL4 /// KIR2DL5A /// KIR2DL5B /// KIR2DS1 /// KIR2DS2 /// KIR2DS3 /// KIR2DS4 /// KIR3DL3 /// KIR3DL3 /// KIR3DS1 (11738374_at) / Fold change /veh KIR2DL2 /// KIR2DL4 /// KIR2DL5A /// KIR2DL5B /// KIR2DS1 /// KIR2DS2 /// KIR2DS3 /// KIR2DS4 /// KIR3DL3 /// KIR3DL3 /// KIR3DS1 (11738374_at) / RFU C1QL1 (11718748_at) / Fold change /veh C1QL1 (11718748_at) / RFU TMPRSS4 (11747572_a_at) / Fold change /veh TMPRSS4 (11747572_a_at) / RFU HAMP (11756126_x_at) / Fold change /veh HAMP (11756126_x_at) / RFU RNFT2 (11725882_a_at) / Fold change /veh RNFT2 (11725882_a_at) / RFU NR4A2 (11747474_a_at) / Fold change /veh NR4A2 (11747474_a_at) / RFU ABCC12 (11746883_a_at) / Fold change /veh ABCC12 (11746883_a_at) / RFU TMEM136 (11760407_x_at) / Fold change /veh TMEM136 (11760407_x_at) / RFU CLDN22 /// WWC2 (11732394_at) / Fold change /veh CLDN22 /// WWC2 (11732394_at) / RFU HLA-DPB1 (11760878_x_at) / Fold change /veh HLA-DPB1 (11760878_x_at) / RFU SPINT1 (11716480_a_at) / Fold change /veh SPINT1 (11716480_a_at) / RFU GAP43 (11754022_s_at) / Fold change /veh GAP43 (11754022_s_at) / RFU A4GNT (11735810_at) / Fold change /veh A4GNT (11735810_at) / RFU PRB3 (11715151_x_at) / Fold change /veh PRB3 (11715151_x_at) / RFU TUBB4B (11761932_at) / Fold change /veh TUBB4B (11761932_at) / RFU CAPN14 (11732068_a_at) / Fold change /veh CAPN14 (11732068_a_at) / RFU TMCC2 (11721928_a_at) / Fold change /veh TMCC2 (11721928_a_at) / RFU IRGQ (11745062_a_at) / Fold change /veh IRGQ (11745062_a_at) / RFU FAM174B (11720279_a_at) / Fold change /veh FAM174B (11720279_a_at) / RFU TMPRSS4 (11748680_a_at) / Fold change /veh TMPRSS4 (11748680_a_at) / RFU FAM212B (11763350_a_at) / Fold change /veh FAM212B (11763350_a_at) / RFU PLEKHG5 (11743358_a_at) / Fold change /veh PLEKHG5 (11743358_a_at) / RFU ZSCAN30 (11745921_a_at) / Fold change /veh ZSCAN30 (11745921_a_at) / RFU CMKLR1 (11741424_a_at) / Fold change /veh CMKLR1 (11741424_a_at) / RFU LOC101060620 /// MAPK8IP1 (11723275_at) / Fold change /veh LOC101060620 /// MAPK8IP1 (11723275_at) / RFU SPTSSB (11747773_x_at) / Fold change /veh SPTSSB (11747773_x_at) / RFU PRSS12 (11739890_at) / Fold change /veh PRSS12 (11739890_at) / RFU BIN1 (11741810_x_at) / Fold change /veh BIN1 (11741810_x_at) / RFU WNT11 (11732464_a_at) / Fold change /veh WNT11 (11732464_a_at) / RFU C10orf10 (11716521_a_at) / Fold change /veh C10orf10 (11716521_a_at) / RFU C5orf56 (11738089_at) / Fold change /veh C5orf56 (11738089_at) / RFU CYB561 (11721691_x_at) / Fold change /veh CYB561 (11721691_x_at) / RFU ANKRD19P (11752326_a_at) / Fold change /veh ANKRD19P (11752326_a_at) / RFU OR2T12 /// OR2T33 /// OR2T8 (11738714_s_at) / Fold change /veh OR2T12 /// OR2T33 /// OR2T8 (11738714_s_at) / RFU VCAN (11748164_a_at) / Fold change /veh VCAN (11748164_a_at) / RFU JSRP1 (11732532_at) / Fold change /veh JSRP1 (11732532_at) / RFU KRTAP10-11 (11738290_x_at) / Fold change /veh KRTAP10-11 (11738290_x_at) / RFU MYO3A (11730013_a_at) / Fold change /veh MYO3A (11730013_a_at) / RFU EBF3 (11725865_a_at) / Fold change /veh EBF3 (11725865_a_at) / RFU CAMK2N1 (11719241_x_at) / Fold change /veh CAMK2N1 (11719241_x_at) / RFU C5orf56 (11738088_a_at) / Fold change /veh C5orf56 (11738088_a_at) / RFU OLFML3 (11715873_a_at) / Fold change /veh OLFML3 (11715873_a_at) / RFU LOC100653217 /// NTM (11731650_a_at) / Fold change /veh LOC100653217 /// NTM (11731650_a_at) / RFU MAPK11 (11762145_a_at) / Fold change /veh MAPK11 (11762145_a_at) / RFU FIZ1 (11724087_x_at) / Fold change /veh FIZ1 (11724087_x_at) / RFU OASL (11726364_x_at) / Fold change /veh OASL (11726364_x_at) / RFU SOX15 (11748057_x_at) / Fold change /veh SOX15 (11748057_x_at) / RFU CD79A (11719716_a_at) / Fold change /veh CD79A (11719716_a_at) / RFU HIST1H1D (11736915_at) / Fold change /veh HIST1H1D (11736915_at) / RFU CASKIN2 (11723855_a_at) / Fold change /veh CASKIN2 (11723855_a_at) / RFU LOC730098 (11760151_x_at) / Fold change /veh LOC730098 (11760151_x_at) / RFU OR4N2 (11742367_at) / Fold change /veh OR4N2 (11742367_at) / RFU PRRT2 (11749266_a_at) / Fold change /veh PRRT2 (11749266_a_at) / RFU SNX32 (11753110_a_at) / Fold change /veh SNX32 (11753110_a_at) / RFU CDHR5 (11726645_a_at) / Fold change /veh CDHR5 (11726645_a_at) / RFU RCAN1 (11760418_a_at) / Fold change /veh RCAN1 (11760418_a_at) / RFU FAM167A (11723789_a_at) / Fold change /veh FAM167A (11723789_a_at) / RFU FAM26E (11764081_at) / Fold change /veh FAM26E (11764081_at) / RFU ISYNA1 (11749810_s_at) / Fold change /veh ISYNA1 (11749810_s_at) / RFU ACY1 (11761880_at) / Fold change /veh ACY1 (11761880_at) / RFU 11764098_at / Fold change /veh 11764098_at / RFU SAMD14 (11745864_x_at) / Fold change /veh SAMD14 (11745864_x_at) / RFU NPB (11741838_a_at) / Fold change /veh NPB (11741838_a_at) / RFU TMPRSS6 (11731388_a_at) / Fold change /veh TMPRSS6 (11731388_a_at) / RFU KRTAP10-2 (11738614_at) / Fold change /veh KRTAP10-2 (11738614_at) / RFU ARHGAP8 /// PRR5-ARHGAP8 (11727945_x_at) / Fold change /veh ARHGAP8 /// PRR5-ARHGAP8 (11727945_x_at) / RFU KRTAP5-7 /// NADSYN1 (11734609_at) / Fold change /veh KRTAP5-7 /// NADSYN1 (11734609_at) / RFU RASL12 (11751679_a_at) / Fold change /veh RASL12 (11751679_a_at) / RFU CDKN2B (11736163_a_at) / Fold change /veh CDKN2B (11736163_a_at) / RFU PRF1 (11729649_at) / Fold change /veh PRF1 (11729649_at) / RFU, ZNF638 /// ZNF638-IT1 / Fold change vs veh, ZNF638 /// ZNF638-IT1 / RFU, PANK3 / Fold change vs veh, PANK3 / RFU, SH3YL1 / Fold change vs veh, SH3YL1 / RFU, ZEB2 / Fold change vs veh, ZEB2 / RFU, NRIP1 / Fold change vs veh, NRIP1 / RFU, PTTG1IP / Fold change vs veh, PTTG1IP / RFU, CAPN2 / Fold change vs veh, CAPN2 / RFU, MED14 / Fold change vs veh, MED14 / RFU, SNORA58 / Fold change vs veh, SNORA58 / RFU, C1orf63 / Fold change vs veh, C1orf63 / RFU, LRRFIP1 / Fold change vs veh, LRRFIP1 / RFU, NDUFAF7 / Fold change vs veh, NDUFAF7 / RFU, SLC12A2 / Fold change vs veh, SLC12A2 / RFU, IBTK / Fold change vs veh, IBTK / RFU, ESF1 / Fold change vs veh, ESF1 / Fold change vs veh, TMEM50B / RFU, TAOK1 / Fold change vs veh, TAOK1 / RFU, ACBD3 / Fold change vs veh, ACBD3 / RFU, TMA16 / Fold change vs veh, TMA16 / RFU, RWDD3 / Fold change vs veh, RWDD3 / RFU, BCAT1 / Fold change vs veh, BCAT1 / RFU, EDEM3 / Fold change vs veh, EDEM3 / RFU, TMEM33 / Fold change vs veh, TMEM33 / RFU, WDR75 / Fold change vs veh, WDR75 / RFU, AHCTF1 / Fold change vs veh, AHCTF1 / RFU, TFRC / Fold change vs veh, TFRC / RFU, ZDHHC17 / Fold change vs veh, ZDHHC17 / RFU, NOM1 / Fold change vs veh, NOM1 / RFU, ARL8B / Fold change vs veh, ARL8B / RFU, ZBTB11 / Fold change vs veh, ZBTB11 / RFU, TAMM41 / Fold change vs veh, TAMM41 / RFU, KIAA1704 /// LOC100996395 / Fold change vs veh, KIAA1704 /// LOC100996395 / RFU, ING1 / Fold change vs veh, ING1 / RFU, TRMT61B / Fold change vs veh, TRMT61B / RFU, FUBP3 / Fold change vs veh, FUBP3 / RFU, TP53 / Fold change vs veh, TP53 / RFU, TNKS2 / Fold change vs veh, TNKS2 / RFU, ZFP14 / Fold change vs veh, ZFP14 / RFU, ACTR2 / Fold change vs veh, ACTR2 / RFU, PPP3R1 / Fold change vs veh, PPP3R1 / RFU, PIK3R1 / Fold change vs veh, PIK3R1 / RFU, HNRNPA1 / Fold change vs veh, HNRNPA1 / RFU, RNF170 / Fold change vs veh, RNF170 / RFU, ZNF28 / Fold change vs veh, ZNF28 / RFU, RNGTT / Fold change vs veh, RNGTT / RFU, OGT / Fold change vs veh, OGT / RFU, BRD1 / Fold change vs veh, BRD1 / RFU, MARS / Fold change vs veh, MARS / RFU, ZNF655 / Fold change vs veh, ZNF655 / RFU, FAHD1 / Fold change vs veh, FAHD1 / RFU, BDP1 / Fold change vs veh, BDP1 / RFU, LRRCC1 / Fold change vs veh, LRRCC1 / RFU, ARID1A / Fold change vs veh, ARID1A / RFU, ZNF146 / Fold change vs veh, ZNF146 / RFU, ZNF330 / Fold change vs veh, ZNF330 / RFU, GPN3 / Fold change vs veh, GPN3 / RFU, C9orf123 / Fold change vs veh, C9orf123 / RFU, N4BP2L2 / Fold change vs veh, N4BP2L2 / RFU, ARFIP1 / Fold change vs veh, ARFIP1 / RFU, FAM179B / Fold change vs veh, FAM179B / RFU, BCL10 / Fold change vs veh, BCL10 / RFU, UHRF1BP1L / Fold change vs veh, UHRF1BP1L / RFU, BET1 / Fold change vs veh, BET1 / RFU, CNOT2 / Fold change vs veh, CNOT2 / RFU, ZNF268 / Fold change vs veh, ZNF268 / Fold change vs veh, ZNF507 / RFU, DGCR2 / Fold change vs veh, DGCR2 / RFU, WDSUB1 / Fold change vs veh, WDSUB1 / Fold change vs veh, HSP90B1 /// MIR3652 / RFU, ADSS / Fold change vs veh, ADSS / RFU, GK / Fold change vs veh, GK / RFU, ZNF148 / Fold change vs veh, ZNF148 / RFU, TAF9 / Fold change vs veh, TAF9 / RFU, SLC1A5 / Fold change vs veh, SLC1A5 / RFU, SLMO2 / Fold change vs veh, SLMO2 / RFU, ABCC4 / Fold change vs veh, ABCC4 / RFU, LOC101060439 /// RAP1B / Fold change vs veh, LOC101060439 /// RAP1B / RFU, RFX7 / Fold change vs veh, RFX7 / RFU, GTPBP10 / Fold change vs veh, GTPBP10 / RFU, CNEP1R1 / Fold change vs veh, CNEP1R1 / RFU, BIVM-ERCC5 /// ERCC5 / Fold change vs veh, BIVM-ERCC5 /// ERCC5 / RFU, ILF3 / Fold change vs veh, ILF3 / RFU 11762660_at / Fold change /veh 11762660_at / RFU VCAN (11757783_s_at) / Fold change /veh VCAN (11757783_s_at) / RFU DDX43 (11728927_at) / Fold change /veh DDX43 (11728927_at) / RFU KRT8 (11758188_x_at) / Fold change /veh KRT8 (11758188_x_at) / RFU NKD1 (11759106_at) / Fold change /veh NKD1 (11759106_at) / RFU SRD5A1 (11742802_a_at) / Fold change /veh SRD5A1 (11742802_a_at) / RFU TPSAB1 /// TPSB2 (11721975_s_at) / Fold change /veh TPSAB1 /// TPSB2 (11721975_s_at) / RFU GSTM3 (11746129_a_at) / Fold change /veh GSTM3 (11746129_a_at) / RFU IL23R (11737362_x_at) / Fold change /veh IL23R (11737362_x_at) / RFU TMEM51 (11727254_a_at) / Fold change /veh TMEM51 (11727254_a_at) / RFU PIWIL2 (11732686_x_at) / Fold change /veh PIWIL2 (11732686_x_at) / RFU ORM1 (11744905_x_at) / Fold change /veh ORM1 (11744905_x_at) / RFU CCDC152 (11743942_at) / Fold change /veh CCDC152 (11743942_at) / RFU ECM1 (11717891_a_at) / Fold change /veh ECM1 (11717891_a_at) / RFU IL23R (11748794_a_at) / Fold change /veh IL23R (11748794_a_at) / RFU TNFAIP8L3 (11732012_x_at) / Fold change /veh TNFAIP8L3 (11732012_x_at) / RFU MBOAT4 (11741988_at) / Fold change /veh MBOAT4 (11741988_at) / RFU 11764193_at / Fold change /veh 11764193_at / RFU TMEM53 (11763286_at) / Fold change /veh TMEM53 (11763286_at) / RFU MAGEB2 (11727129_at) / Fold change /veh MAGEB2 (11727129_at) / RFU TMEM200A (11744735_a_at) / Fold change /veh TMEM200A (11744735_a_at) / RFU CCDC152 (11751479_a_at) / Fold change /veh CCDC152 (11751479_a_at) / RFU FAM211A (11726209_a_at) / Fold change /veh FAM211A (11726209_a_at) / RFU RGS16 (11746705_a_at) / Fold change /veh RGS16 (11746705_a_at) / RFU VCAN (11755009_s_at) / Fold change /veh VCAN (11755009_s_at) / RFU RHOB (11743442_s_at) / Fold change /veh RHOB (11743442_s_at) / RFU RGS16 (11720943_a_at) / Fold change /veh RGS16 (11720943_a_at) / RFU RGS16 (11720944_at) / Fold change /veh RGS16 (11720944_at) / RFU, VPS4B / Fold change vs veh, VPS4B / RFU, CREB1 / Fold change vs veh, CREB1 / RFU, DNAJC13 / Fold change vs veh, DNAJC13 / RFU, GNAQ / Fold change vs veh, GNAQ / RFU, CDK5R1 / Fold change vs veh, CDK5R1 / RFU, ZRANB3 / Fold change vs veh, ZRANB3 / RFU, CUL4A / Fold change vs veh, CUL4A / RFU, CCNY / Fold change vs veh, CCNY / RFU, UFL1 / Fold change vs veh, UFL1 / RFU, COG3 / Fold change vs veh, COG3 / RFU, DIAPH2 / Fold change vs veh, DIAPH2 / RFU, SKA2 / Fold change vs veh, SKA2 / RFU, AFF3 / Fold change vs veh, AFF3 / RFU, LMF1 / Fold change vs veh, LMF1 / RFU, IPO11 / Fold change vs veh, IPO11 / RFU, DFFB / Fold change vs veh, DFFB / RFU, FOXP1 / Fold change vs veh, FOXP1 / RFU, CARD8 / Fold change vs veh, CARD8 / RFU, STRN3 / Fold change vs veh, STRN3 / RFU, ADK / Fold change vs veh, ADK / RFU, RASSF2 / Fold change vs veh, RASSF2 / RFU, WIPF1 / Fold change vs veh, WIPF1 / RFU, LARP1B / Fold change vs veh, LARP1B / RFU, RASA1 / Fold change vs veh, RASA1 / RFU, RB1 / Fold change vs veh, RB1 / RFU, PPFIA1 / Fold change vs veh, PPFIA1 / RFU, MAT2A / Fold change vs veh, MAT2A / RFU, CCT5 / Fold change vs veh, CCT5 / RFU, WDR92 / Fold change vs veh, WDR92 / RFU, CUX1 / Fold change vs veh, CUX1 / RFU, TTC7A / Fold change vs veh, TTC7A / RFU, TMEM135 / Fold change vs veh, TMEM135 / RFU, DEPTOR / Fold change vs veh, DEPTOR / RFU, CPM / Fold change vs veh, CPM / RFU, DNAJB6 / Fold change vs veh, DNAJB6 / RFU, CACNA2D3 / Fold change vs veh, CACNA2D3 / RFU, DTX4 / Fold change vs veh, DTX4 / RFU, TFCP2 / Fold change vs veh, TFCP2 / RFU, GMCL1 /// GMCL1P1 / Fold change vs veh, GMCL1 /// GMCL1P1 / RFU, AEBP2 / Fold change vs veh, AEBP2 / RFU, SNHG1 /// SNORD22 /// SNORD25 /// SNORD26 /// SNORD27 /// SNORD28 /// SNORD29 /// SNORD31 / Fold change vs veh, SNHG1 /// SNORD22 /// SNORD25 /// SNORD26 /// SNORD27 /// SNORD28 /// SNORD29 /// SNORD31 / Fold change (Aza/veh), C12orf56 (ProbeSet 11735607_a_at) / Fold change (ACY-1035/veh), C12orf56 (ProbeSet 11735607_a_at) / Fold change (Aza/veh), FGFR1OP (ProbeSet 11751329_s_at) / Fold change (ACY-1035/veh), FGFR1OP (ProbeSet 11751329_s_at) / Fold change (Aza/veh), VPS36 (ProbeSet 11739960_a_at) / Fold change (ACY-1035/veh), VPS36 (ProbeSet 11739960_a_at) / RFU SYPL1 (11715823_x_at) / Fold change /veh SYPL1 (11715823_x_at) / RFU IGFBP7 (11715501_s_at) / Fold change /veh IGFBP7 (11715501_s_at) / RFU REEP3 (11722064_at) / Fold change /veh REEP3 (11722064_at) / RFU IGLL1 (11728026_x_at) / Fold change /veh IGLL1 (11728026_x_at): dose or concentration left out as unconfirmed. The following applies: MV-4-11 cells, 48 hours.

On to `Nc1ncn([C@@H]2O[C@H](CO)[C@@H](O)[C@H]2O)c(=O)n1` [azacitidine], for which the “RFU RGS16 (11746705_a_at)” value was 77.87 RFU.
